Experimental data taken from patent publication US20210179600A1, “OXAZOLE AND THIAZOLE DERIVATIVES AS INHIBITORS OF ASK1” (Hepagene Therapeutics (HK) Limited, priority 2017, published 2021).

Target: T1, Recombinant human ASK1 kinase (Homo sapiens, UniProt Q99683)
T1 construct: purchased Invitrogen Inc
T1 sequence (Q99683 1-1374): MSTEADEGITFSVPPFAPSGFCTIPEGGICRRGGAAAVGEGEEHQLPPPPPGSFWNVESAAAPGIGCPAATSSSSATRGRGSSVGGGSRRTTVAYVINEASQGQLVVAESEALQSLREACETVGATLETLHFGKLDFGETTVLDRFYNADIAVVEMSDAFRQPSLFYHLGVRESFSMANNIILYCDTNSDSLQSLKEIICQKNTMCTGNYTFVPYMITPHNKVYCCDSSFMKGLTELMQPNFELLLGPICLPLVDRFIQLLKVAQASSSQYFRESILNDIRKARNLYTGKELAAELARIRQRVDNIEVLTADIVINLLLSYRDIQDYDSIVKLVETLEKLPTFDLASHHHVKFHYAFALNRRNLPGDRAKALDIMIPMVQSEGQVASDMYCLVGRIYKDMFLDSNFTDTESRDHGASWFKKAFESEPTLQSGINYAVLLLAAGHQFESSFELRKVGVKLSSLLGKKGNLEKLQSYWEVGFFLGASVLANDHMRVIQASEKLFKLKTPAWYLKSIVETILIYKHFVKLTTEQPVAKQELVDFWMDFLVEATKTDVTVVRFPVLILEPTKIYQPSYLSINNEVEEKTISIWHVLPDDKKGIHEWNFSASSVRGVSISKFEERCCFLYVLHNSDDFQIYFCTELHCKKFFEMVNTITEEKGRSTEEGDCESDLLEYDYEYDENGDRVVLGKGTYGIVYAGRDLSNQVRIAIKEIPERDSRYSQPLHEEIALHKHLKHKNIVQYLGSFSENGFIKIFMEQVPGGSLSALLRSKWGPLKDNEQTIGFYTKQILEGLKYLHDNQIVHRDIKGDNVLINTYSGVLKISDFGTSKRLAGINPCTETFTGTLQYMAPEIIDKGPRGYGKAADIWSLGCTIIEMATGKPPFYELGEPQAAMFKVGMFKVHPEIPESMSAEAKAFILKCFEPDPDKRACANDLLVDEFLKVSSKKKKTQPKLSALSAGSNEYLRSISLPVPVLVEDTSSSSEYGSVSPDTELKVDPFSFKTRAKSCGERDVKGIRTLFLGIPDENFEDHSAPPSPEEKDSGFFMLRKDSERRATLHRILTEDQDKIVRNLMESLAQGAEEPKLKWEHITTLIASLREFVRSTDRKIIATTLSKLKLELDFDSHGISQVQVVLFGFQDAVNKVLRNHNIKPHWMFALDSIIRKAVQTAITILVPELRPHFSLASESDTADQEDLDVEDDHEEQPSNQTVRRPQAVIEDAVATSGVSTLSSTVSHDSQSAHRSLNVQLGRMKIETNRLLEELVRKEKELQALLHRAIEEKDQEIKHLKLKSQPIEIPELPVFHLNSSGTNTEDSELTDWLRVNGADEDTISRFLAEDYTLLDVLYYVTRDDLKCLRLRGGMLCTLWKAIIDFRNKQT
Test: ASK1 kinase HTRF assay (KinEASE-STK)
Assay type: biochemical
Conditions: HTRF detection; 3 nM ASK1 kinase, 1 uM STK-substrate-biotin
Protocol: Reagents: Recombinant human ASK1 kinase was from Invitrogen Inc. HTRF KinEASE™-STK S3 kit was obtained from Cisbio (Bedford, Mass.). All other reagents were of the highest grade commercially available.
Assay: The assay measures the phosphorylation level of a biotinylatd peptide substrate by the ASK1 kinase using HTRF detection. ASK1 kinase assay is based on HTRF KinEASE™-STK manual from Cisbio. Test compound, 1 uM STK-substrate-biotin, 3 nM of ASK1 kinase are incubated with 1*Kinase buffer with 5 mM MgCl2 and 1 mM DTT. 250 nM Sa-XL 665(4*) and STK-antibody-Cryptate work solution are added to stop the reaction and phosphorylated peptide substrate is detected using Envision 2104 Multilabeled reader from PerkinElmer. The fluorescence is measured at 615 nm (Cryptate) and 665 nm (XL665) and a ratio of 665 nm/615 nm is calculated for each well. The resulting TR-FRET level (a ratio of 665 nm/615 nm) is proportional to the phosphorylation level of substrate.

| Compound | EC50 |
| --- | --- |
| CC(C)n1cnnc1-c1cccc(-c2ncc(-c3cccc(-c4ccccc4)c3)o2)n1 [Compound I-104] | 50 to 500 nM |
| C[C@H](CO)n1cnnc1-c1cccc(-c2ncc(-c3cccc(C4CCCC4)c3)o2)n1 [Compound I-135] | ≤ 50 nM |
| CC(CO)n1cnnc1-c1cccc(-c2ncc(-c3ccccc3)o2)n1 (stereo not shown) [Compound I-004, 2-(3-(6-(5-Phenyloxazol-2-yl)pyridin-2-yl)-4H-1,2,4-triazol-4-yl) propan-1-ol] | ≤ 50 nM |
| CC(C)n1cnnc1-c1cccc(-c2ncc(-c3ccc(-c4ccccc4)cc3)o2)n1 [Compound I-105] | 50 to 500 nM |
| CC(C)n1cnnc1-c1cccc(-c2ncc(-c3cccc(N(C)C)c3)o2)n1 [Compound I-058] | ≤ 50 nM |
| CC(C)n1cnnc1-c1cccc(-c2ncc(-c3cccc(N4CCNCC4)c3)o2)n1 [Compound I-113] | ≤ 50 nM |
| CC(C)n1cnnc1-c1cccc(-c2ncc(-c3cccc(N4CCN(C)CC4)c3)o2)n1 [Compound I-115] | ≤ 50 nM |
| Cc1ccc(-c2cnc(-c3cccc(-c4nncn4C(C)CO)n3)o2)c(F)c1 (stereo not shown) [Compound I-001, 2-(3-(6-(5-(2-Fluoro-4-methylphenyl)oxazol-2-yl)pyridin-2-yl)-4H-1,2,4-triazol-4-yl) propan-1-ol] | ≤ 50 nM |
| CC(C)n1cnnc1-c1cccc(-c2ncc(-c3cccc(-n4cnc(C5CC5)c4)c3)o2)n1 [Compound I-144] | ≤ 50 nM |
| CC(C1CC1)n1cnnc1-c1cccc(-c2ncc(-c3ccccc3)o2)n1 (stereo not shown) [Compound I-015, 2-(6-(4-(1-Cyclopropylethyl)-4H-1,2,4-triazol-3-yl)pyridin-2-yl)-5-phenyloxazole] | ≤ 50 nM |
| CC(C)n1cnnc1-c1cccc(-c2ncc(-c3ccc(C(C)(C)C)cc3F)o2)n1 [Compound I-045] | 50 to 500 nM |
| CC(C)n1cnnc1-c1cccc(-c2ncc(-c3cccc(C#N)c3)o2)n1 [Compound I-090] | 50 to 500 nM |
| CC(C)n1cnnc1-c1cccc(-c2ncc(-c3cccc(OC[C@@H]4CNCCO4)c3)o2)n1 [Compound I-079] | ≤ 50 nM |
| CC(C)n1cnnc1-c1cccc(-c2ncc(-c3cccc(-c4ccccn4)c3)o2)n1 [Compound I-106] | 50 to 500 nM |
| Cc1cc(F)c(-c2cnc(-c3cccc(-c4nncn4[C@H](C)CO)n3)o2)c(F)c1 [Compound I-052] | ≤ 50 nM |
| CC(C)n1cnnc1-c1cccc(-c2ncc(-c3cccc(N4CCCCC4)c3)o2)n1 [Compound I-120] | 50 to 500 nM |
| CC(C)n1cnnc1-c1cccc(-c2ncc(-c3cccc(N4CCN(S(C)(=O)=O)CC4)c3)o2)n1 [Compound I-119] | ≤ 50 nM |
| CC(C)n1cnnc1-c1cccc(-c2ncc(-c3cccc(C(=O)O)c3)o2)n1 [Compound I-008, 3-(2-[6-[4-(Propan-2-yl)-4H-1,2,4-triazol-3-yl]pyridin-2-yl]-1,3-oxazol-5-yl)benzoic acid] | 50 to 500 nM |
| Cc1ccc(-c2cnc(-c3cccc(-c4nncn4C(C)C)n3)s2)c(F)c1 [Compound I-003, 5-(2-Fluoro-4-methylphenyl)-2-(6-(4-isopropyl-4H-1,2,4-triazol-3-yl)pyridin-2-yl)thiazole] | 50 to 500 nM |
| CC(C)n1cnnc1-c1cccc(-c2ncc(-c3ccc(OC(F)(F)F)cc3)o2)n1 [Compound I-081] | 50 to 500 nM |
| CC(C)n1cnnc1-c1cccc(-c2ncc(-c3cccc(C(F)(F)F)c3)o2)n1 [Compound I-086] | 50 to 500 nM |
| CC(C)n1cnnc1-c1cc(-c2ncc(-c3ccccc3)o2)cs1 [II-01, 3-[4-(5-Phenyl-1,3-oxazol-2-yl)thiophen-2-yl]-4-(propan-2-yl)-4H-1,2,4-triazole] | 50 to 500 nM |
| CC(C)n1cnnc1-c1cccc(-c2ncc(C3CCCCC3)o2)n1 [Compound I-016, 5-Cyclohexyl-2-(6-(4-isopropyl-4H-1,2,4-triazol-3-yl)pyridin-2-yl) oxazole] | 50 to 500 nM |
| C[C@@H](CO)n1cnnc1-c1cccc(-c2ncc(-c3ccccc3)o2)n1 [Compound I-019] | 50 to 500 nM |
| CNc1cccc(-c2cnc(-c3cccc(-c4nncn4C(C)C)n3)o2)c1 [Compound I-061] | ≤ 50 nM |
| CC(C)n1cnnc1-c1cccc(-c2ncc(-c3ccc4ccccc4c3)o2)n1 [Compound I-101] | 50 to 500 nM |
| C[C@H](CO)n1cnnc1-c1cccc(-c2ncc(-c3ccc(N)cc3)o2)n1 [Compound I-066] | ≤ 50 nM |

Now from value to compound:

| EC50 | Compound |
| --- | --- |
| ≤ 50 nM | CC(C)n1cnnc1-c1cccc(-c2ncc(-c3ccccc3O)o2)n1 [Compound I-072] |
| ≤ 50 nM | CC(C)n1cnnc1-c1cccc(-c2ncc(-c3ccc(N)cc3)o2)n1 [Compound I-065] |
| ≤ 50 nM | CC(C)n1cnnc1-c1cccc(-c2ncc(-c3cccc(N)c3)o2)n1 [Compound I-063] |
| ≤ 50 nM | C[C@H](CO)n1cnnc1-c1cccc(-c2ncc(-c3c(F)cccc3F)o2)n1 [Compound I-051] |
| 50 to 500 nM | CC(C)n1cnnc1-c1cccc(-c2ncc(-c3cccc(C4=CCN(C(=O)OC(C)(C)C)C4)c3)o2)n1 [Compound I-124] |
| ≤ 50 nM | CC(C)n1cnnc1-c1cccc(-c2ncc(-c3cccc(-c4cccnc4)c3)o2)n1 [Compound I-107] |
| 50 to 500 nM | COc1ccc(-c2cnc(-c3cccc(-c4nncn4C(C)C)n3)o2)cc1 [Compound I-071] |
| ≤ 50 nM | COC(=O)c1cccc(-c2cnc(-c3cccc(-c4nncn4C(C)C)n3)o2)c1 [Compound I-092] |
| ≤ 50 nM | CC(C)n1cnnc1-c1cccc(-c2ncc(-c3cccc(N4CCC(O)C4)c3)o2)n1 (stereo not shown) [Compound I-005, 1-[3-(2-[6-[4-(Propan-2-yl)-4H-1,2,4-triazol-3-yl]pyridin-2-yl]-1,3-oxazol-5-yl)phenyl]pyrrolidin-3-ol] |
| ≤ 50 nM | C[C@H](CO)n1cnnc1-c1cccc(-c2ncc(-c3cccc(C4=CCCC4)c3)o2)n1 [Compound I-136] |
| ≤ 50 nM | CSc1ccccc1-c1cnc(-c2cccc(-c3nncn3[C@H](C)CO)n2)o1 [Compound I-096] |
| 50 to 500 nM | CC(C)n1cnnc1-c1cccc(-c2ncc(-c3cccc(C4=CCCCC4)c3)o2)n1 [Compound I-132] |
| 50 to 500 nM | CC(C)n1cnnc1-c1cccc(-c2ncc(-c3ccc(C(N)=O)cc3)o2)n1 [Compound I-095] |
| ≤ 50 nM | CC(C)n1cnnc1-c1cccc(-c2ncc(-c3cccc(N4CCOCC4)c3)o2)n1 [Compound I-110] |
| ≤ 50 nM | CSc1cccc(-c2cnc(-c3cccc(-c4nncn4C(C)C)n3)o2)c1 [Compound I-068] |
| 50 to 500 nM | Cc1cc(C)c(-c2cnc(-c3cccc(-c4nncn4[C@H](C)CO)n3)o2)c(C)c1 [Compound I-033] |
| ≤ 50 nM | CNc1ccc(-c2cnc(-c3cccc(-c4nncn4C(C)C)n3)o2)cc1 [Compound I-060] |
| ≤ 50 nM | CC(C)Oc1cccc(-c2cnc(-c3cccc(-c4nncn4C(C)C)n3)o2)c1 [Compound I-076] |
| ≤ 50 nM | CC(C)n1cnnc1-c1cccc(-c2ncc(-c3cccc(N4CCN(C5CC5)CC4)c3)o2)n1 [Compound I-118] |
| ≤ 50 nM | CC(C)n1cnnc1-c1cccc(-c2ncc(-c3cccc(N4CCN(CCO)CC4)c3)o2)n1 [Compound I-012, 2-(4-(3-(2-(6-(4-Isopropyl-4H-1,2,4-triazol-3-yl)pyridin-2-yl)oxazol-5-yl)phenyl)piperazin-1-yl)ethanol] |
| ≤ 50 nM | C[C@H](CO)n1cnnc1-c1cccc(-c2ncc(-c3cccc(S(N)(=O)=O)c3)o2)n1 [Compound I-099] |
| 50 to 500 nM | C[C@H](CO)n1cnnc1-c1cccc(-c2ncc(-c3cccc(C4=CCCCC4)c3)o2)n1 [Compound I-130] |
